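Abbreviation: GI50, concentration required for 50% inhibition of growth. TGI denotes the concentration required for complete inhibition of growth.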
Assays:
Assay in all cases: NCI anticancer screen, dose series, 384-well format
NCI-H460 NSCLC = test system: NCI-H460 NSCLC
U251 glioblastoma = test system: U251 glioblastoma
HOP-92 NSCLC = test system: HOP-92 NSCLC
KM12 colon = test system: KM12 colon
MDA-MB-468 breast = test system: MDA-MB-468 breast
LOX IMVI melanoma = test system: LOX IMVI melanoma
NCI-H23 lung = test system: NCI-H23 lung
SF-539 CNS = test system: SF-539 CNS
TK-10 renal = test system: TK-10 renal
NCI-H226 lung = test system: NCI-H226 lung
HCC-2998 colon = test system: HCC-2998 colon
EKVX NSCLC = test system: EKVX NSCLC
A498 renal = test system: A498 renal
HT29 colon = test system: HT29 colon
HS 578T breast = test system: HS 578T breast
MOLT-4 leukemia = test system: MOLT-4 leukemia
NCI/ADR-RES ovarian = test system: NCI/ADR-RES ovarian
RXF 393 renal = test system: RXF 393 renal
T-47D breast = test system: T-47D breast
HOP-62 NSCLC = test system: HOP-62 NSCLC
OVCAR-8 ovarian = test system: OVCAR-8 ovarian
SK-MEL-5 melanoma = test system: SK-MEL-5 melanoma
M14 melanoma = test system: M14 melanoma
NCI-H322M lung = test system: NCI-H322M lung
ACHN renal = test system: ACHN renal
MDA-MB-231 breast = test system: MDA-MB-231 breast
RPMI-8226 leukemia = test system: RPMI-8226 leukemia
MALME-3M melanoma = test system: MALME-3M melanoma
SK-OV-3 ovarian = test system: SK-OV-3 ovarian
BT-549 breast = test system: BT-549 breast
CCRF-CEM leukemia = test system: CCRF-CEM leukemia
UACC-62 melanoma = test system: UACC-62 melanoma
SNB-75 CNS = test system: SNB-75 CNS
HL-60(TB) leukemia = test system: HL-60(TB) leukemia
A549 NSCLC = test system: A549 NSCLC
SN12C renal = test system: SN12C renal
SF-295 CNS = test system: SF-295 CNS
HCT-116 colon = test system: HCT-116 colon
SW-620 colon = test system: SW-620 colon
SNB-19 CNS = test system: SNB-19 CNS
COLO 205 colon = test system: COLO 205 colon
HCT-15 colon = test system: HCT-15 colon
MCF7 breast = test system: MCF7 breast
UO-31 renal = test system: UO-31 renal
786-0 renal = test system: 786-0 renal
MDA-MB-435 melanoma = test system: MDA-MB-435 melanoma
DU-145 prostate = test system: DU-145 prostate
UACC-257 melanoma = test system: UACC-257 melanoma
SR leukemia = test system: SR leukemia
K-562 leukemia = test system: K-562 leukemia
PC-3 prostate = test system: PC-3 prostate
SK-MEL-28 melanoma = test system: SK-MEL-28 melanoma
OVCAR-3 ovarian = test system: OVCAR-3 ovarian
CAKI-1 renal = test system: CAKI-1 renal
NCI-H522 lung = test system: NCI-H522 lung
IGROV1 ovarian = test system: IGROV1 ovarian
OVCAR-4 ovarian = test system: OVCAR-4 ovarian
SF-268 CNS = test system: SF-268 CNS

## CNCCN(C)Cc1cn[nH]c1-c1ccc(OC2CC(OCCC3CCOCC3)C2)cc1 (configuration not stated)
NCI-H460 NSCLC
  GI50: 43.8 µM
  TGI: > 100 µM
U251 glioblastoma
  GI50: 51.8 µM
  TGI: > 100 µM
HOP-92 NSCLC
  GI50: 42.5 µM
  TGI: > 100 µM
KM12 colon
  GI50: > 100 µM
  TGI: > 100 µM
MDA-MB-468 breast
  GI50: 45.5 µM
  TGI: > 100 µM
LOX IMVI melanoma
  GI50: 32.6 µM
  TGI: > 100 µM
NCI-H23 lung
  GI50: 40 µM
  TGI: > 100 µM
SF-539 CNS
  GI50: 94.4 µM
  TGI: > 100 µM
TK-10 renal
  GI50: 84.5 µM
  TGI: > 100 µM
NCI-H226 lung
  GI50: > 100 µM
  TGI: > 100 µM
HCC-2998 colon
  GI50: 50.7 µM
  TGI: > 100 µM
EKVX NSCLC
  GI50: 60.6 µM
  TGI: > 100 µM
A498 renal
  GI50: 48.9 µM
  TGI: > 100 µM
HT29 colon
  GI50: 24.6 µM
  TGI: 71.5 µM
HS 578T breast
  GI50: > 100 µM
  TGI: > 100 µM
MOLT-4 leukemia
  GI50: 36.8 µM
  TGI: > 100 µM
NCI/ADR-RES ovarian
  GI50: > 100 µM
  TGI: > 100 µM
RXF 393 renal
  GI50: 69.8 µM
  TGI: > 100 µM
T-47D breast
  GI50: 71.2 µM
  TGI: > 100 µM
HOP-62 NSCLC
  GI50: 58.3 µM
  TGI: > 100 µM
OVCAR-8 ovarian
  GI50: > 100 µM
  TGI: > 100 µM
SK-MEL-5 melanoma
  GI50: 16.1 µM
  TGI: > 100 µM
M14 melanoma
  GI50: > 100 µM
  TGI: > 100 µM
NCI-H322M lung
  GI50: > 100 µM
  TGI: > 100 µM
ACHN renal
  GI50: 70.9 µM
  TGI: > 100 µM
MDA-MB-231 breast
  GI50: 78.8 µM
  TGI: > 100 µM
RPMI-8226 leukemia
  GI50: 24.5 µM
  TGI: > 100 µM
MALME-3M melanoma
  GI50: 13.6 µM
  TGI: 56.2 µM
SK-OV-3 ovarian
  GI50: > 100 µM
  TGI: > 100 µM
BT-549 breast
  GI50: 61.4 µM
  TGI: > 100 µM
CCRF-CEM leukemia
  GI50: 53.8 µM
  TGI: > 100 µM
UACC-62 melanoma
  GI50: 22 µM
  TGI: 66.6 µM
SNB-75 CNS
  GI50: > 100 µM
  TGI: > 100 µM
HL-60(TB) leukemia
  GI50: 3.26 µM
  TGI: 12.4 µM
A549 NSCLC
  GI50: 79.6 µM
  TGI: > 100 µM
SN12C renal
  GI50: 89.2 µM
  TGI: > 100 µM
SF-295 CNS
  GI50: 64.5 µM
  TGI: > 100 µM
HCT-116 colon
  GI50: 36.6 µM
  TGI: > 100 µM
SW-620 colon
  GI50: > 100 µM
  TGI: > 100 µM
SNB-19 CNS
  GI50: > 100 µM
  TGI: > 100 µM
COLO 205 colon
  GI50: 96.4 µM
  TGI: > 100 µM
HCT-15 colon
  GI50: > 100 µM
  TGI: > 100 µM
MCF7 breast
  GI50: 51.5 µM
  TGI: > 100 µM
UO-31 renal
  GI50: 80.2 µM
  TGI: > 100 µM
786-0 renal
  GI50: 41.4 µM
  TGI: > 100 µM
MDA-MB-435 melanoma
  GI50: > 100 µM
  TGI: > 100 µM
DU-145 prostate
  GI50: > 100 µM
  TGI: > 100 µM
UACC-257 melanoma
  GI50: 18.9 µM
  TGI: 43.3 µM
SR leukemia
  GI50: 7.14 µM
  TGI: 15 µM
K-562 leukemia
  GI50: 9.91 µM
  TGI: 25 µM
PC-3 prostate
  GI50: 75.4 µM
  TGI: > 100 µM
SK-MEL-28 melanoma
  GI50: 43 µM
  TGI: > 100 µM
OVCAR-3 ovarian
  GI50: 24 µM
  TGI: > 100 µM
CAKI-1 renal
  GI50: 41.2 µM
  TGI: > 100 µM
NCI-H522 lung
  GI50: > 100 µM
  TGI: > 100 µM
IGROV1 ovarian
  GI50: 37.1 µM
  TGI: > 100 µM
OVCAR-4 ovarian
  GI50: > 100 µM
  TGI: > 100 µM
SF-268 CNS
  GI50: 83.6 µM
  TGI: > 100 µM

## CS(=O)(=O)N1CCc2c(-c3cnc(N)nc3)nc(N3CCOCC3)nc21
NCI-H460 NSCLC
  GI50: 0.256 µM
  TGI: 31.3 µM
U251 glioblastoma
  GI50: 2.64 µM
  TGI: > 100 µM
HOP-92 NSCLC
  GI50: 0.248 µM
  TGI: 2.59 µM
KM12 colon
  GI50: 2.23 µM
  TGI: > 100 µM
MDA-MB-468 breast
  GI50: 0.391 µM
  TGI: 2.32 µM
LOX IMVI melanoma
  GI50: 1.01 µM
  TGI: 28.4 µM
NCI-H23 lung
  GI50: 0.826 µM
  TGI: > 100 µM
SF-539 CNS
  GI50: 1.12 µM
  TGI: 14.1 µM
TK-10 renal
  GI50: 0.421 µM
  TGI: 4.97 µM
NCI-H226 lung
  GI50: 0.38 µM
  TGI: 3.94 µM
HCC-2998 colon
  GI50: 1.42 µM
  TGI: > 100 µM
EKVX NSCLC
  GI50: 0.411 µM
  TGI: 3.83 µM
A498 renal
  GI50: 0.428 µM
  TGI: 2.73 µM
HT29 colon
  GI50: 0.334 µM
  TGI: > 100 µM
HS 578T breast
  GI50: 0.465 µM
  TGI: 3 µM
MOLT-4 leukemia
  GI50: 0.252 µM
  TGI: 1.55 µM
NCI/ADR-RES ovarian
  GI50: 2.6 µM
  TGI: > 100 µM
RXF 393 renal
  GI50: 1.16 µM
  TGI: 4.97 µM
T-47D breast
  GI50: 0.0317 µM
  TGI: 0.396 µM
HOP-62 NSCLC
  GI50: 1.34 µM
  TGI: > 100 µM
OVCAR-8 ovarian
  GI50: 1.01 µM
  TGI: > 100 µM
SK-MEL-5 melanoma
  GI50: 1.23 µM
  TGI: 7.9 µM
M14 melanoma
  GI50: 0.932 µM
  TGI: > 100 µM
NCI-H322M lung
  GI50: 0.426 µM
  TGI: 9.38 µM
ACHN renal
  GI50: 0.719 µM
  TGI: 15.9 µM
MDA-MB-231 breast
  GI50: 0.9 µM
  TGI: > 100 µM
RPMI-8226 leukemia
  GI50: 0.461 µM
  TGI: 2.47 µM
MALME-3M melanoma
  GI50: 0.281 µM
  TGI: 2.18 µM
SK-OV-3 ovarian
  GI50: 0.17 µM
  TGI: 1.36 µM
BT-549 breast
  GI50: 1.05 µM
  TGI: 5.67 µM
CCRF-CEM leukemia
  GI50: 0.722 µM
  TGI: 30.4 µM
UACC-62 melanoma
  GI50: 0.739 µM
  TGI: 4.09 µM
SNB-75 CNS
  GI50: 0.391 µM
  TGI: 3.6 µM
HL-60(TB) leukemia
  GI50: 0.192 µM
  TGI: > 100 µM
A549 NSCLC
  GI50: 0.806 µM
  TGI: 16.9 µM
SN12C renal
  GI50: 0.433 µM
  TGI: 5.54 µM
SF-295 CNS
  GI50: 0.537 µM
  TGI: 2.99 µM
HCT-116 colon
  GI50: 1.06 µM
  TGI: > 100 µM
SW-620 colon
  GI50: 2.64 µM
  TGI: > 100 µM
SNB-19 CNS
  GI50: 5.41 µM
  TGI: > 100 µM
COLO 205 colon
  GI50: 0.477 µM
  TGI: > 100 µM
HCT-15 colon
  GI50: 0.445 µM
  TGI: > 100 µM
MCF7 breast
  GI50: 0.0473 µM
  TGI: > 100 µM
UO-31 renal
  GI50: 0.489 µM
  TGI: 7.6 µM
786-0 renal
  GI50: 1.71 µM
  TGI: 17.8 µM
MDA-MB-435 melanoma
  GI50: 1.49 µM
  TGI: 94.5 µM
DU-145 prostate
  GI50: 0.661 µM
  TGI: 8.57 µM
UACC-257 melanoma
  GI50: 2.12 µM
  TGI: > 100 µM
SR leukemia
  GI50: 0.116 µM
  TGI: 0.551 µM
K-562 leukemia
  GI50: 3.65 µM
  TGI: > 100 µM
PC-3 prostate
  GI50: 0.34 µM
  TGI: 4.45 µM
SK-MEL-28 melanoma
  GI50: 0.673 µM
  TGI: 8.52 µM
OVCAR-3 ovarian
  GI50: 0.752 µM
  TGI: 6.66 µM
CAKI-1 renal
  GI50: 0.335 µM
  TGI: 3.51 µM
NCI-H522 lung
  GI50: 0.71 µM
  TGI: > 100 µM
IGROV1 ovarian
  GI50: 0.123 µM
  TGI: 0.568 µM
OVCAR-4 ovarian
  GI50: 1.65 µM
  TGI: 7.87 µM
SF-268 CNS
  GI50: 1.7 µM
  TGI: > 100 µM
